The supplement of paper PMC11061612

Key:
[1] = tested on: UACC-62 (Melanoma); test: combination Emax (second highest fraction inhibited in the dose matrix, 72 h); higher = more inhibition; extreme values may be limits of the assay
How it was run: (§1)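 Cell lines in DMEM/F12 or RPMI with 10% FBS were plated in 1536-well plates, held 24 hours at 37°C, 5% CO2, then given two-drug dose matrices for 72 hours (DMSO typically 0.2%). Viability was read by CellTiter-Glo 2.0 luminescence and scaled as inhibition from 0 (vehicle wells) to 1 (blank wells). Combination Emax is the second-highest inhibition in the matrix; Bliss excess is observed combination effect minus expected EA + EB − EA·EB, EA and EB being single-agent effects.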

[2] = tested on: OE19 (Esophageal Adenocarcinoma); test: as above
How it was run: as §1

[3] = tested on: BT-549 (Breast Carcinoma); test: as above
How it was run: as §1

[4] = tested on: KMOE-2 (Acute Myeloid Leukemia); test: as above
How it was run: as §1

[5] = tested on: TE-1 (Esophageal Squamous Cell Carcinoma); test: as above
How it was run: as §1

[6] = tested on: NCI-H727 (Other Solid Carcinomas); test: as above
How it was run: as §1

[7] = tested on: SW13 (Other Solid Carcinomas); test: as above
How it was run: as §1

[8] = tested on: Hs-766T (Pancreatic Carcinoma); test: as above
How it was run: as §1

[9] = tested on: OVCAR-4 (Ovarian Carcinoma); test: as above
How it was run: as §1

[10] = tested on: SU8686 (Pancreatic Carcinoma); test: as above
How it was run: as §1

[11] = tested on: MLMA (Other Blood Carcinomas); test: as above
How it was run: as §1

[12] = tested on: EFM-19 (Breast Carcinoma); test: as above
How it was run: as §1

[13] = tested on: SCC-15 (Oral Cavity Carcinoma); test: as above
How it was run: as §1

[14] = tested on: EoL-1-cell (Acute Myeloid Leukemia); test: as above
How it was run: as §1

[15] = tested on: NCI-H358 (Lung Adenocarcinoma); test: as above
How it was run: as §1

[16] = tested on: D-263MG (Glioblastoma); test: as above
How it was run: as §1

[17] = tested on: AMO-1 (Plasma Cell Myeloma); test: as above
How it was run: as §1

[18] = tested on: C-4-I (Cervical Carcinoma); test: as above
How it was run: as §1

[19] = tested on: TK10 (Kidney Carcinoma); test: as above
How it was run: as §1

[20] = tested on: Caov-4 (Ovarian Carcinoma); test: Bliss excess, mean over the matrix (fraction); higher = more synergy;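 further: after 72 h of two-drug dosing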
How it was run: as §1

SMILES	combination Emax [1]	combination Emax [2]	combination Emax [3]	combination Emax [4]	combination Emax [5]	combination Emax [6]	combination Emax [7]	combination Emax [8]	combination Emax [9]	combination Emax [10]	combination Emax [11]	combination Emax [12]	combination Emax [13]	combination Emax [14]	combination Emax [15]	combination Emax [16]	combination Emax [17]	combination Emax [18]	combination Emax [19]	Bliss excess [20]
CN(C)CCCOc1ccc(-c2ccc3ncc4c(c3c2)n(C2CCOCC2)c(=O)n4C)cn1 [AZD0156] + C=CCn1c(=O)c2cnc(Nc3ccc(N4CCN(C)CC4)cc3)nc2n1-c1cccc(C(C)(C)O)n1 [AZD1775] (first compound max 1 µM, partner max 1 µM)	0.391	0.427	0.613	0.854	0.627	0.333	0.147	0.43	0.55	0.208	0.908	0.607	0.308	0.996	0.472	0.38	0.827	0.755	0.353	0.0155
CN(C)CCCOc1ccc(-c2ccc3ncc4c(c3c2)n(C2CCOCC2)c(=O)n4C)cn1 [AZD0156] + CCN(CCO)CCCOc1ccc2c(Nc3cc(CC(=O)Nc4cccc(F)c4)[nH]n3)ncnc2c1 [AZD2811] (first compound max 1 µM, 7x7, partner max 1 µM)	0.188	0.722	0.221	0.21	0.254	0.155	0.407	0.0844	0.148	0.0439	0.239	0.383	0.201	0.999	0.157	0.329	0.312	0.147	0.166	0.005
CN(C)CCCOc1ccc(-c2ccc3ncc4c(c3c2)n(C2CCOCC2)c(=O)n4C)cn1 [AZD0156] + C[C@@H]1COCCN1C2=NC(=NC(=C2)C3(CC3)[S@](=N)(=O)C)C4=C5C=CNC5=NC=C4 [AZD6738] (first compound max 1 µM, 7x7, partner max 10 µM)	0.555	0.869	0.46	0.59	0.462	0.635	0.469	0.607	0.697	0.365	0.79	0.345	0.446	0.987	0.656	0.857	0.908	0.872	0.695	-0.0388
CN(C)CCCOc1ccc(-c2ccc3ncc4c(c3c2)n(C2CCOCC2)c(=O)n4C)cn1 [AZD0156] + O=C(c1cc(Cc2n[nH]c(=O)c3ccccc23)ccc1F)N1CCN(C(=O)C2CC2)CC1 [Olaparib] (first compound max 3 µM, partner max 3 µM)	0.183	0.512	0.102	0.239	0.0888	0.286	0.421	0.207	0.149	0.146	0.363	0.533	0.277	0.732	0.247	0.196	0.481	0.362	0.197	-0.0431
C=CCn1c(=O)c2cnc(Nc3ccc(N4CCN(C)CC4)cc3)nc2n1-c1cccc(C(C)(C)O)n1 [AZD1775] + C1CN(CCC1(C(=O)N[C@@H](CCO)C2=CC=C(C=C2)Cl)N)C3=NC=NC4=C3C=CN4 [Capivasertib] (first compound max 3 µM, partner max 3 µM)	0.458	0.717	0.638	0.938	0.732	0.667	0.586	0.325	0.672	0.202	0.894	0.71	0.676	1	0.663	0.696	0.945	0.97	0.503	-0.0398
C=CCn1c(=O)c2cnc(Nc3ccc(N4CCN(C)CC4)cc3)nc2n1-c1cccc(C(C)(C)O)n1 [AZD1775] + C[C@@H]1COCCN1C2=NC(=NC(=C2)C3(CC3)[S@](=N)(=O)C)C4=C5C=CNC5=NC=C4 [AZD6738] (first compound max 1 µM, partner max 10 µM)	0.622	0.918	0.808	0.92	0.654	0.654	0.636	0.643	0.843	0.384	0.935	0.672	0.517	1	0.732	0.908	0.922	0.93	0.698	-0.0268
C=CCn1c(=O)c2cnc(Nc3ccc(N4CCN(C)CC4)cc3)nc2n1-c1cccc(C(C)(C)O)n1 [AZD1775] + O=C(c1cc(Cc2n[nH]c(=O)c3ccccc23)ccc1F)N1CCN(C(=O)C2CC2)CC1 [Olaparib] (first compound max 1 µM, partner max 10 µM)	0.468	0.301	0.551	0.905	0.552	0.368	0.259	0.473	0.472	0.182	0.882	0.639	0.284	0.999	0.447	0.447	0.728	0.792	0.455	-0.0343
CCN(CCO)CCCOc1ccc2c(Nc3cc(CC(=O)Nc4cccc(F)c4)[nH]n3)ncnc2c1 [AZD2811] + C=CCn1c(=O)c2cnc(Nc3ccc(N4CCN(C)CC4)cc3)nc2n1-c1cccc(C(C)(C)O)n1 [AZD1775] (first compound max 1 µM, partner max 1 µM)	0.391	0.651	0.62	0.89	0.601	0.311	0.463	0.346	0.472	0.177	0.981	0.467	0.296	1	0.416	0.51	0.718	0.771	0.33	-0.0258
CCN(CCO)CCCOc1ccc2c(Nc3cc(CC(=O)Nc4cccc(F)c4)[nH]n3)ncnc2c1 [AZD2811] + C[C@@H]1COCCN1C2=NC(=NC(=C2)C3(CC3)[S@](=N)(=O)C)C4=C5C=CNC5=NC=C4 [AZD6738] (first compound max 1 µM, 7x7, partner max 10 µM)	0.519	0.864	0.487	0.615	0.449	0.559	0.537	0.547	0.688	0.248	0.684	0.355	0.437	1	0.55	0.619	0.859	0.841	0.602	-0.0065
CCN(CCO)CCCOc1ccc2c(Nc3cc(CC(=O)Nc4cccc(F)c4)[nH]n3)ncnc2c1 [AZD2811] + O=C(c1cc(Cc2n[nH]c(=O)c3ccccc23)ccc1F)N1CCN(C(=O)C2CC2)CC1 [Olaparib] (first compound max 1 µM, 7x7, partner max 10 µM)	0.258	0.714	0.244	0.276	0.105	0.346	0.364	0.186	0.227	0.145	0.223	0.322	0.281	1	0.184	0.418	0.354	0.303	0.189	0.0034
O=C(c1cc(Cc2n[nH]c(=O)c3ccccc23)ccc1F)N1CCN(C(=O)C2CC2)CC1 [Olaparib] + Cc1c2c(nn1C)CSCc1cc(n(C)n1)CSc1cc(c3ccccc3c1)OCCCc1c(C(=O)O)n(C)c3c-2c(Cl)ccc13 [AZD5991] (first compound max 10 µM, 7x7, partner max 1 µM)	0.568	–	0.217	–	–	0.106	0.763	0.0824	–	–	0.384	0.272	–	1	0.197	0.562	1	–	0.0994	-0.0215
CCc1c2c(nc3ccc(O)cc13)-c1cc3c(c(=O)n1C2)COC(=O)[C@]3(O)CC [SN-38] + O=C(c1cc(Cc2n[nH]c(=O)c3ccccc23)ccc1F)N1CCN(C(=O)C2CC2)CC1 [Olaparib] (first compound max 0.3 µM, 7x7, partner max 10 µM)	0.843	0.309	0.636	0.983	–	0.256	0.962	0.415	0.24	–	0.858	0.566	–	0.99	0.693	0.703	0.952	0.928	0.373	0.0748
Cc1nc(-c2cn3c(n2)-c2ccc(-c4cnn(C(C)(C)C(N)=O)c4)cc2OCC3)n(C(C)C)n1 [Taselisib] + O=C(Nc1ccc2[nH]nc(-c3ccncc3)c2c1)[C@@H]1CCN(CC(=O)N2CCN(c3ccc(-c4ncccn4)cc3)CC2)C1 [SCH772984] (first compound max 10 µM, 7x7, partner max 5 µM)	0.955	–	0.501	–	–	0.958	0.894	0.676	–	–	0.561	0.693	–	1	0.798	0.892	0.761	–	0.773	0.0269
CC1(C)CCC(CN2CCN(c3ccc(C(=O)NS(=O)(=O)c4ccc(NCC5CCOCC5)c([N+](=O)[O-])c4)c(Oc4cnc5[nH]ccc5c4)c3)CC2)=C(c2ccc(Cl)cc2)C1 [Venetoclax] + CS(=O)(=O)CCNCc1ccc(-c2ccc3ncnc(Nc4ccc(OCc5cccc(F)c5)c(Cl)c4)c3c2)o1 [Lapatinib] (first compound max 1 µM, 7x7, partner max 10 µM)	0.256	–	0.249	–	–	0.246	0.549	0.208	–	–	0.117	0.207	–	0.986	0.431	0.108	0.882	–	0.516	-0.0353
